Results as given in patent US20230398125A1, “TREATING HEPATITIS” (Albireo AB, priority 2022, published 2023).

Columns and labels:
Human NTCP = biological target: T1, Human NTCP (Homo sapiens, UniProt Q14973); assay: [3H]taurocholate uptake in hNTCP-transfected CHO cells, apparent Ki and type of inhibition; format: cell-based
T1 construct: expressed in transfected cells; peptide purchased from Pharmaron
T1 sequence (Q14973 1-349): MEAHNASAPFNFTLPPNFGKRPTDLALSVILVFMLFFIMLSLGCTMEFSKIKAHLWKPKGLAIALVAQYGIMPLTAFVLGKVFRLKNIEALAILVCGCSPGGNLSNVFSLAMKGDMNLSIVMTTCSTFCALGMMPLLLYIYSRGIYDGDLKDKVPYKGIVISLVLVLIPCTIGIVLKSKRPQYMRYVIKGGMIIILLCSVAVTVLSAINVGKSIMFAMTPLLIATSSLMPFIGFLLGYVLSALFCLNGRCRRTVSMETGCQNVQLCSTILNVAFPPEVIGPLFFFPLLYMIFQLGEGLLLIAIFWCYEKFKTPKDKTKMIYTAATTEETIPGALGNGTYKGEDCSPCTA
Procedure: Stably hNTCP-transfected CHO cells were seeded onto 24 well plates. After overnight incubation, CHO cells were treated with 10 mM sodium butyrate to induce NTCP transporter expression. Twenty-four hours later, media was aspirated, cells were washed with warm Hanks balanced salt solution (HBSS) containing sodium (+Na). Cells were incubated with increasing doses of Compound 1 (for example: 0, 10 nM, 100 nM, 1 μM, 10 μM), in the presence of tracer doses of 5 μm, 10 μM, or 25 μM [^3H]taurocholate at 37° C. for <10 minutes. The cells were processed for radioactivity. The apparent Ki and kinetic types of inhibition (competitive, uncompetitive, non-competitive, mixed) were determined by complementary Dixon/Cornish-Bowden plot analysis and Lineweaver-Burk plot analysis.

M. fascicularis Ntcp = biological target: T2, M. fascicularis Ntcp (Macaca fascicularis, UniProt G7PAR4); assay: [3H]TC transport in HEK293 cells transiently transfected with M. fascicularis Ntcp; format: cell-based; details: read-out: IC50 bile acid transport via M. fascicularis Ntcp
T2 construct: expressed in transfected cells; host or cells: GripTite 293 MSR (HEK293) cells, transient, Lipofectamine 2000
T2 sequence (G7PAR4 1-349): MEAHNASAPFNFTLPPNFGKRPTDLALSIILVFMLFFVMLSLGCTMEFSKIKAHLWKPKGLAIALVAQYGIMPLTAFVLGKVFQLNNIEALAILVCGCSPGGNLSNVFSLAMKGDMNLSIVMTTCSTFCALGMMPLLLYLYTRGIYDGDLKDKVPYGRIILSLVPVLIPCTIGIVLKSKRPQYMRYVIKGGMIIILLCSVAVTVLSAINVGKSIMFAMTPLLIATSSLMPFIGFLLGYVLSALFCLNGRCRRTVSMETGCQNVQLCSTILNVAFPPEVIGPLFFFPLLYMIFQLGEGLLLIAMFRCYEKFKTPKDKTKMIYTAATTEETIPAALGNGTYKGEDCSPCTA
Procedure: GripTite 293 MSR cells (here referred to as HEK293 cells, Invitrogen), a modified HEK293 cell line expressing human macrophage scavenger receptor for stronger adhesion, were maintained at 37° C., 5% CO2 and 95% humidity in DMEM/F-12 medium (Thermo Fisher Scientific) supplemented with 10% fetal calf serum (Sigma), 4 mM L-glutamine (PAA) and penicillin/streptomycin. HEK293 cells were transiently transfected with the M. fascicularis Ntcp cDNA construct for transport and peptide binding assays. Transfection was performed with Lipofectamine 2000 (Thermo Fisher Scientific). […]
Bile acid transport measurements were performed in the NTCP-HEK293 cells with tritium-labelled taurocholic acid (here referred to as [^3H]TC) (20 Ci/mmol, 0.09 mCi/mL, Perkin Elmer, Waltham, USA). […] Cell-associated radioactivity of [^3H]TC or [^3H]preS1 was quantified by liquid scintillation counting in a Packard Microplate Scintillation Counter TopCount NXT (Packard Instrument Company, Meriden, USA). Transport rates and [^3H]preS1 binding were determined in counts per minute (cpm). The mean of the 0% control was subtracted and the net [^3H]TC transport rates and net [^3H]preS1 binding rates, respectively, were expressed as % of control. IC50 values were calculated from quadruplicate determinations by GraphPad Prism 6 (GraphPad, San Diego, Calif., USA). […]

## CCCCC1CN(c2ccccc2)c2cc(SC)c(O/C=C(\F)C(=O)O)cc2S(=O)(=O)N1C (stereo not drawn) [Compound 1, (Z)-3-((3-butyl-2-methyl-7-(methylthio)-1,1-dioxido-5-phenyl-2,3,4,5-tetrahydro-1,2,5-benzothiadiazepin-8-yl)oxy)-2-fluoroacrylic acid]
Human NTCP; Dixon/Cornish-Bowden and Lineweaver-Burk analysis, NTCP and ASBT
  kinetic type of inhibition of transporter activity: competitive inhibitor
Human NTCP; [3H]taurocholate, CHO cells, read-out: inhibitory constant (Ki) for human NTCP
  Ki: 15 nM
M. fascicularis Ntcp
  IC50: 200 nM
